Data: paper PMC9860859, “Design, Development, and Optimisation of Smart Linker Chemistry for Targeted Colonic Delivery—In Vitro Evaluation” (Pharmaceutics, 2023)
Values joined by “and” are separate entries in the source; they are usually repeats but may differ in a detail not shown here. Equal values may be shown once. “Also recorded” adds a separate entry of the source.

Experiments:
[1] = cited from earlier work
[2] = In vitro release assay of probes 13–17 by HPLC in buffers simulating the GIT
Protocol: (§1) Test solutions for probes 13–17 were prepared at 25 µM in a 1:1 mixture of ethanol and the respective buffer. Samples were incubated at 37 °C, then analysed by HPLC using an Agilent 1260 Infinity system, with conditions as follows: Agilent ZORBAX Eclipse Plus C18 Rapid Resolution column, 3.5 μm (4.6 × 100 mm), 95 Å pore size; column temperature, 35 °C; injection volume, 2 μL; flow rate, 1.0 mL min^−1; gradient elution from 5–100% solvent B (0.1% TFA in MeCN) in solvent A (0.1% TFA in ultrapure water) over 9 min, then hold for 1 min at 100% B; UV detection at two wavelengths (254 and 214 nm). The total run time was 10 min, and the retention times of the model compounds CTG and DCM-OH were 4.28 and 6.16 min, respectively. The retention times of probes 13–17 were 4.41, 4.53, 4.58, 5.97, and 6.04 min, respectively. Calibration curves of free fluorophore were constructed at pH values of 1.2, 5.0, 6.5, and 7.5 over the concentration range of 10–100 µM. A concentration of 25 μM was selected to run in the assay as it gave a good instrument response at the selected wavelength. The data at each pH value was fitted by linear regression, yielding equations of the form: y = ax ± b, where y is the peak area and x is the corresponding concentration in µM. Furthermore, the correlation coefficient (R^2) was ≥0.999 in each case, confirming the linearity of the method used under the specified conditions.
(§2) Release assays for probes 13–17 were performed in vitro using pH and temperature conditions chosen to simulate the GIT, with analysis by HPLC. We used KCl/HCl buffer (pH 1.2) and acetate buffer (pH 5.0) to simulate the pH of the stomach and the duodenum, respectively, while PBS (pH 7.5) and phosphate buffer (pH 6.5) were used to mimic the pH of the lower small intestine and the colon. The compounds were dissolved in 1:1 ethanol/buffer and incubated at 37 °C. Aliquots were taken at different time points and analysed by HPLC and LC/MS, as described in Section 2.2. […] Thus, the aforementioned compounds were incubated at pH 1.2 for 5 h to test their stability under conditions simulating the stomach. […] Then, the stability of the probes was tested in simulated duodenum conditions for 30–40 min, reflecting the reported transit time in the duodenum [26].

[3] = design: method as in PMID 33979164; conditions: cited from earlier work
[4] = design: method as in PMID 33979164; conditions: cited from earlier work; remark: listed apart in the source
[5] = design: method as in PMID 33979164; conditions: cited from earlier work; remark: listed apart in the source
[6] = In vitro release of Msl from Msl prodrugs by HPLC in buffers simulating the GIT; assay type: physicochemical; conditions: for release of Msl: colon-like conditions (pH 6.5); for Msl release / prodrug stability: 37 °C; for prodrug remained intact: simulated upper GIT conditions
Protocol: We chose Msl as a starting point for putting our prodrug concept into practice. […] Therefore, a new methodology was developed in which prodrug 21 was incubated in 1:1 ethanol/buffer and the HPLC analysis was run with UV detection at 310 nm, as detailed in the Supplementary Materials.
Then, the same compound was incubated at pH 7.5 and 6.5 to measure its stability under conditions mimicking the small intestine and colon, respectively. […] We believed that the formaldehyde released after cyclisation of the linker had initiated the side-reaction according to the mechanism described in detail in Supplementary Materials and supported by literature (Scheme S3).

[7] = as above; assay type: physicochemical; conditions: pH 7.5, 37 °C, over 2 h, water/buffer 1:1, small intestine-like
[8] = design: method as in PMID 2219958; conditions: cited from earlier work
[9] = Fluorometric assay of the stability of probes 13 and 16 at pH 7.5 and 6.5; assay type: physicochemical
Excerpt: page 2: 1. Stability of probe 13 at pH 7.5 and 6.5 using the spectrofluorometric assay. Principal: CTG's fluorescence is reversibly quenched or shifted to another wavelength when the phenol group is conjugated to the pH-sensitive linkers. Upon cyclization of the linker and the release of the free phenol, the fluorescence will be restored (on-mode). Fluorescence can be measured to follow the release of the payload, which is the fluorophore itself. The optical properties of the free fluorophore were measured in 50% DMSO/buffer at pHs 7.5, and 6.5. Since the fluorescence- based assay depends on the difference in fluorescence properties between the free fluorophore and its conjugates, the excitation wavelength must be carefully chosen. […] Secondly, the wavelength that gave a reasonable absorbance rather than maximum absorbance should be chosen to avoid exceeding the detector limits. Finally, a long distance between the excitation and emission wavelengths is preferable to minimize the background fluorescence. Accordingly, the in vitro tests were conducted by measuring the fluorescence at 555 nm after excitation of the probes at 500 nm, as this wavelength achieved the previous requirements. […] The microplate was incubated at 37 °C, and the fluorescence (em: 555 nm, ex: 500 nm) was recorded at every time point until the full release of CTG was obtained. […]

[10] = buffer, pH 5
Protocol: as §1, §2

[11] = pH 1.2 (KCl/HCl buffer/EtOH 1:1), 5 h, 37 °C, 25 µM, stomach-like

Cc1cc(C(=O)O)ccc1-c1c2ccc(=O)cc-2oc2cc(O)ccc12 [CTG, 4-Carboxy-2-methyl Tokyo Green]
pKa [1]: 4.33

N#CC(C#N)=C1C=C(/C=C/c2ccc(O)cc2)Oc2ccccc21 [DCM-OH, Dicyanomethylene-4H-pyran dye]
pKa [1]: 7.21

Nc1ccc(O)c(C(=O)O)c1 [Msl, Mesalamine]
pKa of aromatic amino group (–NH3+) [1]: 6 | pKa of carboxylic group (–COOH) [1]: 3 | pKa of phenolic group (–OH) [1]: 13.9

C#CCCCNCCCCOC(=O)OCOc1ccc2c(-c3ccc(C(=O)O)cc3C)c3ccc(=O)cc-3oc2c1.Cl [Probe 15, N-(4-(((((9-(4-Carboxy-2-methylphenyl)-3-oxo-3H-xanthen-6yl)oxy)methoxy)carbonyl)oxy)butyl)pent-4-yn-1-aminium chloride]
half-life at 25 µM ([2]; PBS, pH 7.5): 2.4 ± 0.37 h | half-life at 25 µM ([2]; acetate buffer, pH 5): > 0.583 h | CTG payload released (sustained release) ([2]; colon-like conditions (pH 6.5), over 38 h): > 90% | fluorophore release / stability under stomach-like conditions ([2]; pH 1.2, 37 °C): excellent stability; also recorded: no detectable fluorophore release; also recorded: stable | fluorophore release / stability under duodenum-like conditions ([2]; pH 5.0, 37 °C): excellent stability; also recorded: no detectable fluorophore release; also recorded: stable | half-life at 25 µM ([2]; phosphate buffer, pH 6.5): 13.2 ± 0.54 h | CTG payload protected from being released ([2]; small intestine-like conditions, pH 7.5, 2 h): 60%

C#CCCCNCCCOC(=O)OCOc1ccc(/C=C/C2=CC(=C(C#N)C#N)c3ccccc3O2)cc1.Cl [Probe 17, (E)-N-(3-((((4-(2-(4-(Dicyanomethylene)-4H-chromen-2-yl)vinyl)phenoxy)methoxy)carbonyl)oxy)propyl)pent-4-yn-1-aminium chloride]
half-life at 25 µM ([2]; PBS, pH 7.5): 0.113 ± 0.012 h | half-life at 25 µM ([2]; acetate buffer, pH 5): 16.4 ± 1.52 h | fluorophore release [2, 11]: 0.5% | free fluorophore detected ([2]; pH 5.0 (acetate buffer/EtOH 1:1), at 35 min, 37 °C): 7% | time to full fluorophore release ([2]; pH 6.5, mimicking the colon, 37 °C): 170 min | time to achieve complete fluorophore release ([2]; pH 7.5, small intestine-like, 37 °C): 40 min | half-life at 25 µM ([2]; phosphate buffer, pH 6.5): 0.467 ± 0.0257 h

CNCCCOC(=O)OCOc1c(-c2ccc(Oc3ccc(OC(F)(F)F)cc3)cc2F)c(C)nc2cc(OC)c(Cl)cc12 [Prodrug 2]
stability under stomach-like conditions [3]: stable | aqueous solubility compared with the parent drug [4]: improved aqueous solubility | oral bioavailability compared with the parent drug [5]: enhanced oral bioavailability

C#CCCCNCCCCOC(=O)OCOc1ccc(N)cc1C(=O)O.Cc1ccc(S(=O)(=O)O)cc1.Cc1ccc(S(=O)(=O)O)cc1 [Prodrug 21, 3-Carboxy-4-((((4-(pent-4-yn-1-ylammonio)butoxy)carbonyl)oxy)methoxy)benzeneaminium-di(4-methylbenzenesulfonate)]
release of Msl ([6]; after 24 h): 36% | release of Msl ([6]; after 48 h): 61–68% and 61% | release of Msl ([6]; after 6 d): 93% | Msl release / prodrug stability ([6]; pH 1.2, 5 h, stomach-like): no Msl was released | Msl release / prodrug stability ([6]; pH 5.0, 35 min, duodenum-like): no Msl was released | prodrug remained intact [6]: 77–80% | Msl payload released [7]: 20%

C#CCCCNCCCOC(=O)OCOc1ccc(N)cc1C(=O)O.Cc1ccc(S(=O)(=O)O)cc1.Cc1ccc(S(=O)(=O)O)cc1 [Prodrug 22, 3-Carboxy-4-((((3-(pent-4-yn-1-ylammonio)propoxy)carbonyl)oxy)methoxy)benzeneaminium-di(4-methylbenzenesulfonate)]
release of Msl ([6]; after 48 h): 61–68% and 68% | Msl release / prodrug stability ([6]; pH 1.2, 5 h, stomach-like): fully intact | Msl release / prodrug stability ([6]; pH 5.0, 35 min, duodenum-like): fully intact | prodrug remained intact [6]: 77–80% | Msl payload released [7]: 23.5%

CCOC(=O)OC(C)OC1=C(C(=O)Nc2ccccn2)N(C)S(=O)(=O)c2ccccc21 (centres unmarked) [ampiroxicam]
t½ ([8]; pH 1): ≥ 50 h | t½ (hydrolysis) ([8]; pH 6.0–8.5): ≥ 8 h

(E)-N-(3-((((4-(2-(4-(dicyanomethylene)-4H-chromen-2-yl)vinyl)phenoxy)methoxy)carbonyl)oxy)propyl)pent-4-yn-1-aminium chloride [Probe 16]
time to conversion to the free fluorophore ([9]; at both pH 6.5 and pH 7.5, buffer/DMSO 1:1, 37 °C): ≤ 3 min | fluorophore release in fluorometric assay ([9]; pH 7.5 and 6.5, buffer/DMSO 1:1, 37 °C): released immediately | half-life [10]: 0.343 ± 0.0035 h | fluorophore release [2, 11]: 3% | fluorophore release ([2]; pH 5.0 (acetate buffer/EtOH 1:1), 30–40 min, 37 °C, duodenum-like): ~ 66%
